Experiment [1] addresses T1, Tau K18 fragment aggregates (amino acids 244 to 372 of human Tau441) (Homo sapiens, UniProt P10636).
T1 construct: encompassing amino acids 244 to 372 of the longest isoform (2N4R) of human Tau441; purchased Biotechne; host or cells: bacteria
Description: Tau K18 disaggregation assay by ThT. The format is biochemical. As to conditions: ThT fluorescence; 2 μM K18 aggregates, 30 minutes at RT. The method, then:
Tau K18 Disaggregation Assay by ThT
The Tau K18 fragment, encompassing amino acids 244 to 372 of the longest isoform (2N4R) of human Tau441, was expressed in bacteria and purified (Biotechne). For the K18 disaggregation assay by ThT, 35 μM of recombinant K18 in PBS were aggregated for 24 hours at 37° C. in presence of 25 μM of heparin (Sigma-Aldrich) and 10 mM of 1,4-Dithiothreito (DTT from Sigma-Aldrich) under shaking at 750 RPM. Compound 1 was dissolved in anhydrous dimethyl sulfoxide (DMSO, Sigma-Aldrich) to reach a concentration of 10 mM. K18 aggregates and serial dilutions of compounds were mixed together in PBS (volume 50 μL) to a final concentration of 2 μM of K18 aggregates and from 400 to 0.1 μM of Compound 1. The mixture was incubated for 30 minutes at room temperature (RT), then 40 μL of this mixture were transferred into a black 384-well plate assay (Perkin-Elmer) and mixed with 10 μL of 100 μM ThT in 250 mM glycine (both from Sigma-Aldrich) in PBS. Fluorescence (relative fluorescence units; RFU) was measured in monoplicate or duplicate on a Tecan reader (excitation: 440 nm; emission: 485 nm). Percentage of K18 disaggregation was then calculated and half maximal effective concentration (EC50) was determined using GraphPad Prism version 8 (GraphPad Software) assuming a one-binding site fitting model, see Table 3 and Table 4.

Experiment [2] deals with T2, flTau aggregates (longest isoform of human Tau, 2N4R) (Homo sapiens, UniProt P10636).
T2 construct: 35 μM of recombinant full-length (fl) Tau in phosphate-buffered saline (PBS) were aggregated; purchased Biotechne; host or cells: bacteria
T2 sequence (P10636 1-441 isoform P10636-8): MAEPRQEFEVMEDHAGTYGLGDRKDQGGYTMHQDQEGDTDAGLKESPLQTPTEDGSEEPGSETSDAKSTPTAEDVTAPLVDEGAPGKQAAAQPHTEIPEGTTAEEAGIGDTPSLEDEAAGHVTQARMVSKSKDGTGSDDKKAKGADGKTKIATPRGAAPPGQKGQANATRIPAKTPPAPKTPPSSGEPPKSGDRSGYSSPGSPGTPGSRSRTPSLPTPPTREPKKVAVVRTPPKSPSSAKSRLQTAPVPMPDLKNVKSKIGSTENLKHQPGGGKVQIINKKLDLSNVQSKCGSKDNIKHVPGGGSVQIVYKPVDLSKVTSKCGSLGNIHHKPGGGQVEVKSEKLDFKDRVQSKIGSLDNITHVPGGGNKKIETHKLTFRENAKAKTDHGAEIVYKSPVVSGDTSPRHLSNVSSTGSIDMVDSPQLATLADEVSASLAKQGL
Briefly: Full-length Tau (flTau) disaggregation assay by Thioflavin T (ThT). It counts as biochemical. The settings on record: ThT fluorescence; 60 nM flTau aggregates, 30 minutes at RT; read-out: flTau disaggregation EC50. A digest of the protocol:
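Recombinant 2N4R Tau (35 μM) pre-aggregated 72 h at 37 °C with 35 μM heparin and 10 mM DTT under shaking. Aggregates (60 nM final) incubated 30 min at RT in PBS with compound (20–0.0012 μM), then ThT added; fluorescence read at ex 440/em 485 nm and EC50 fitted to one-site model.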

For experiment [3], the system named is misfolded Tau in SH-SY5Y cell line overexpressing full-length human Tau P301L. Description: Reduction of intracellular misfolded Tau. As to conditions: 20 nM, 72 hours, differentiated P301L SH-SY5Y cells, MC1 antibody, vs DMSO control. It counts as cell-based. As to the method:
The SH-SY5Y cell line overexpressing the full-length form of human Tau carrying the P301L mutation were cultured in complete medium DMEM-F12 4.5 g/L Glutamax (Invitrogen), 15% FBS (Biochrom), 1% Peni/Strep (Invitrogen) supplemented with 2.5 μg/ml of G418 (Sigma-Aldrich) selection antibiotic. For the in vitro differentiation from neuroblastoma cells to neurons, cells were plated in 24-well plates (Costar 3337) on glass coverslips coated with Poly-D-Lysine at a seeding density of 2.5×10^3 cells. P301L SH-SY5Y cells were differentiated for 1 week at 37° C. in culture medium in presence of 10 μM retinoic acid (RA; Sigma, R2625). Every 48-72 h media was changed and fresh retinoic acid was added. For the treatment with compound 1, were dispensed on the cells at concentrations between 1-20 nM for 72 hours, with changing compounds every 24 h. After the incubation with Compound 1, cells were pre-fixed with 2% PFA for 5 min followed by a 15 min fixation with 4% PFA. […] Permeabilized fixed cells were then incubated overnight in 10% NGS/0.25% Triton X-100 in PBS with monoclonal anti-mouse MC1 antibody detected misfolded Tau (provided by Prof. Peter Davies, Albert Einstein College of Medicine, New York, USA) and polyclonal anti-rabbit total Tau (Abcam; ab64193) both diluted 1:1000.

The subject of experiment [4] is rTg4510 mice. Briefly: In vivo efficacy: aggregated Tau in cortical total brain homogenate (AlphaLISA). The settings on record: 100 mg/kg bi-daily by gavage for 4 weeks. From the text:
In Vivo Efficacy of the Compounds of the Present Invention
Double transgenic rTg4510 mice express the full-length human Tau carrying the P301L mutation (Tau4RON-P301L) under the control of the tet-inducible (or tetracycline-inducible system) CaMKII promoter (Ramsden et al., J. Neurosci., 2005·25(46):10637-10647). Single transgenic mice expressing only the tetracycline-controlled transactivator (tTA) were used as genotype controls. The study comprised 4 treatment groups (n=15 female for tTa group and n=33 female mice/group for the treatment) with the following group distribution (see Table 5). Mice were distributed over 5 cohorts and cages were composed with an average of 3 mice per cage. Compounds or vehicle control were administered bi-daily by gavage for 4 weeks starting at the age of 5 months. […]
To prepare cortical total brain homogenates (Cx-TBH), frozen brains were resuspended in 9 volumes/weight of ice-cold homogenization buffer [25 mM Tris-HCl pH 7.4, 150 mM NaCl, 1 mM EDTA, 1 mM EGTA containing phosphatase inhibitors (30 mM NaF, 0.2 mM Na3VO4, 1 nM Okadaic acid, 1 mM PMSF, 5 mM Na4P2O7) and protease inhibitor cocktail (Complete™, Roche)] and homogenized in Eppendorf tubes with a VWR pellet mixer (47747-370). […] Aggregated Tau in total cortical homogenate was quantified using the following antibody pairs: HT7-Acceptor beads+biotin (BT)-HT7-donor beads. […]
Background: Bead proximity is the source of the signal in Alpha formats.

Experiment [5] has as its system rTg4510 mice. Description: In vivo efficacy: NFTs and neuroinflammation markers by immunohistochemistry. As to conditions: 100 mg/kg, immunohistochemistry (data not shown). An excerpt: Double transgenic rTg4510 mice express the full-length human Tau carrying the P301L mutation (Tau4RON-P301L) under the control of the tet-inducible (or tetracycline-inducible system) CaMKII promoter (Ramsden et al., J. Neurosci., 2005·25(46):10637-10647). Single transgenic mice expressing only the tetracycline-controlled transactivator (tTA) were used as genotype controls. The study comprised 4 treatment groups (n=15 female for tTa group and n=33 female mice/group for the treatment) with the following group distribution (see Table 5). Mice were distributed over 5 cohorts and cages were composed with an average of 3 mice per cage. Compounds or vehicle control were administered bi-daily by gavage for 4 weeks starting at the age of 5 months.
After incubation of this mixture at room temperature for 1 hour, 25 μL of Streptavidin Donor beads (Perkin Elmer) at 25 μg/mL were added in the dark. Plates were analyzed after 30 minutes incubation using the EnSpire Alpha instrument and EnSpire Workstation version 3.00.

Molecules are shown by their SMILES. Entries after “also recorded” stand apart in the source; their conditions may differ. Counter-ions that a name gives are not always drawn. Where only a bound is given, the exact number is not on record here.

T1 sequence (P10636 561-689): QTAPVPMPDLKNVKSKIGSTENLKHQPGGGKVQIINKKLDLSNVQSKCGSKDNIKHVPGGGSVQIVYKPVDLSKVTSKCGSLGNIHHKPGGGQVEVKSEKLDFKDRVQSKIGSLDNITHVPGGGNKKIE

Regarding `c1ccc2c(C3CCN(c4ccc5oc(N6CCOCC6)nc5c4)CC3)n[nH]c2c1` [Example 1, 5-(4-(1H-indazol-3-yl)piperidin-1-yl)-2-morpholinobenzo[d]oxazole], in experiment [1], the EC50 is under 1 µM. Also, the EC50 in experiment [2] was under 1 µM. Further, the “Reduction of intracellular misfolded Tau” value in experiment [3] is given as “Reduction of intracellular misfolded Tau; also recorded: significantly different from DMSO control”. The “aggregated Tau in Cortical Total brain homogenate (Cx-TBH)” value in experiment [4] (100 mg/kg) was “significantly decreased”. Also, in experiment [4] (listed as Compound 1, 100 mg/kg), the “aggregated Tau in Cortical Total brain homogenate (Cx-TBH)” value is on record as “decreased of aggregated Tau”. Further, in experiment [5], the “NeuroFibrillary Tangles (NFTs)” value is “significant decrease”, the “neuroinflammation marker CD68” value is reported as “significant decrease” and the “neuroinflammation marker Iba1” value is “significant decrease”.

Take `c1ccc2c(C3CCN(c4cnc5nc(N6CCOCC6)sc5c4)CC3)n[nH]c2c1` [Example 41, 4-(6-(4-(1H-indazol-3-yl)piperidin-1-yl)thiazolo[4,5-b]pyridin-2-yl)morpholine]: the EC50 in experiment [1] and in experiment [2] was 1 to 10 µM each time.

On to `c1ccc2c(C3CCN(c4ccc5oc(N6CCOCC6)nc5n4)CC3)n[nH]c2c1` [Example 43, 5-(4-(1H-indazol-3-yl)piperidin-1-yl)-2-morpholinooxazolo[4,5-b]pyridine], for which the EC50 in experiment [1] and in experiment [2] was 1 to 10 µM each time.

As for `c1ccc2c(C3CCN(c4ccc5nc(N6CCOCC6)sc5c4)CC3)n[nH]c2c1` [Example 44, 4-(6-(4-(1H-indazol-3-yl)piperidin-1-yl)benzo[d]thiazol-2-yl)morpholine], the EC50 in experiment [1] and in experiment [2] was 1 to 10 µM throughout.

For the compound `Cn1cc(C#Cc2ccc3oc(N4CCOCC4)nc3c2)c2cc(F)cnc21` [Example 46, 5-((5-fluoro-1-methyl-1H-pyrrolo[2,3-b]pyridin-3-yl)ethynyl)-2-morpholinobenzo[d]oxazole], the concentration giving a half-maximal response (EC50) in experiment [1] and in experiment [2] was 1 to 10 µM each time.

For `c1ccc2c(C3CCN(c4cnc5nc(N6CCOCC6)oc5c4)CC3)n[nH]c2c1` [Example 47, 6-(4-(1H-indazol-3-yl)piperidin-1-yl)-2-morpholinooxazolo[4,5-b]pyridine], the results for the EC50 in experiment [1] and in experiment [2] were 10 to 50 µM and 1 to 10 µM, respectively.

As to `C1=C(c2n[nH]c3ccccc23)CCN(c2ccc3oc(N4CCOCC4)nc3c2)C1` [Example 50, 5-(4-(1H-indazol-3-yl)-3,6-dihydropyridin-1(2H)-yl)-2-morpholinobenzo[d]oxazole], the EC50 in experiment [1] and in experiment [2] was under 1 µM throughout.

As for `Cn1cc(C2CCN(c3ccc4oc(N5CCOCC5)nc4c3)CC2)c2cc(F)ccc21` [Example 51, 5-(4-(5-fluoro-1-methyl-1H-indol-3-yl)piperidin-1-yl)-2-morpholinobenzo[d]oxazole], the figures for the EC50 in experiment [1] and in experiment [2] were 10 to 50 µM and 1 to 10 µM, respectively.

For the compound `COc1ccc2c(C3CCN(c4ccc5oc(N6CCOCC6)nc5c4)CC3)c[nH]c2n1` [Example 104, 5-(4-(6-methoxy-1H-pyrrolo[2,3-b]pyridin-3-yl)piperidin-1-yl)-2-morpholinobenzo[d]oxazole], the EC50 in experiment [1] and in experiment [2] was 1 to 10 µM throughout.

Turning to `Cn1cc(C2CCN(c3cnc4nc(N5CCOCC5)sc4c3)CC2)c2cc(F)cnc21` [Example 109, 4-(6-(4-(5-fluoro-1-methyl-1H-pyrrolo[2,3-b]pyridin-3-yl)piperidin-1-yl)thiazolo[4,5-b]pyridin-2-yl)morpholine hydrochloride], the results for the EC50 in experiment [1] and in experiment [2] were 10 to 50 µM and 1 to 10 µM, respectively.

`Cn1cc(C2CCN(c3cc4sc(N5CCOCC5)nc4cn3)CC2)c2cc(F)cnc21` [Example 110, 4-(6-(4-(5-fluoro-1-methyl-1H-pyrrolo[2,3-b]pyridin-3-yl)piperidin-1-yl)thiazolo[4,5-c]pyridin-2-yl)morpholine hydrochloride]: the EC50 in experiment [1] fell in the range of 10 to 50 µM; in experiment [2] it was 1 to 10 µM.

As for `Cn1cc(C2CCN(c3ccc4nc(N5CCOCC5)oc4c3)CC2)c2cc(F)cnc21` [Example 111, 6-(4-(5-fluoro-1-methyl-1H-pyrrolo[2,3-b]pyridin-3-yl)piperidin-1-yl)-2-morpholinobenzo[d]oxazole hydrochloride], the EC50 in experiment [1] and in experiment [2] was 1 to 10 µM each time.

As a reminder, the EC50 is the concentration that produces a half-maximal response.

These data come from patent US20230391774A1, “Novel Compounds” (AC Immune SA, priority 2020, published 2023).
